Data as given in patent US6284914A, “Highly water-soluble metalloproteinase inhibitors” (Fuji Yakuhin Kogyo Kabushiki Kaisha, priority 1995, dated 2001).
Counter-ions that a name gives are not always drawn. Like-named read-outs stand apart in the source and are kept apart here.

Legend:
collagenase (MMP-1) = target: T1, collagenase (MMP-1) (Homo sapiens, UniProt P03956); assay: Assay for Collagenase Inhibitory Activity (MMP-1); format: biochemical
T1 construct: endogenous in cells; host or cells: human fibroblast
T1 sequence (P03956 100-469): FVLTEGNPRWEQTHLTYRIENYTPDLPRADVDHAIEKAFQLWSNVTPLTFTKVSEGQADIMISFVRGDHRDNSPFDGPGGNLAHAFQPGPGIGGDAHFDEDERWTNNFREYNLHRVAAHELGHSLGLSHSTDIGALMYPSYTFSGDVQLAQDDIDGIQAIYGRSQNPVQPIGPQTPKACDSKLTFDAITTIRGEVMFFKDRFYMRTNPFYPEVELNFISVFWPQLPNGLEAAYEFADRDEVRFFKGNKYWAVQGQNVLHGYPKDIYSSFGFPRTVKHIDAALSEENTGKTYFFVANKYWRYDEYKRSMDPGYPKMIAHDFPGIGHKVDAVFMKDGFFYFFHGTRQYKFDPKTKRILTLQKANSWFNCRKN
Experimental: (§1) Inhibitory activities of the compounds represented by the general formula (I) according to the invention for collagenase (metalloproteinase concerned with a tissue destruction) derived from human fibroblast were tested by the method of Y. Murawaki et al., [Journal of Hepatology, 18, p. 328-334 (1993)], and their inhibitory activities for stromelysin derived from human fibroblast were measured by the method of S. S. Twining et al., [Anal. Biochem., 143, p. 30 (1984)].
Inhibitory activities for collagenase (MMP-1) of the compounds of Examples and comparative compounds were measured by the method of Y. Murawaki et al., [Journal of Hepatology, 18, p. 328-334 (1993)]. The latent procollagenase was activated by incubating with mercury aminophenylacetate (2 mM) at 35° C. for 2 hours. The assay was done by using bovine type I collagen labeled with fluorescein as a substrate. The activated collagenase was added to the substrate solution (0.5 mg/ml) in Tris HCl buffer (50 mM, pH 7.5) containing sodium chloride (0.4 M) and calcium chloride (10 mM). The obtained solution was incubated at 35° C. for 2 hours. The enzyme digestion was stopped by the addition of o-phenanthroline (80 mM). The mixture was added with pig spleen elastase solution (25 μg/ml) in the above Tris HCl buffer, and incubated 37° C. for 10 min. The obtained solution was added with 70% ethanol and Tris HCl buffer (170 mM, pH 9.5) containing sodium chloride (0.61 M), whereby the indigested substrate was sedimented by centrifuging at 3000 g for 20 min. The supernatant was taken, and its intensity of fluorescence was determined by the excitation wavelength (495 nm) and the measured wavelength (520 nm), and the inhibitory activity was obtained. IC50 is a concentration of a compound assayed in the digesting enzyme, whereby the splitting of the substrate was decreased to 50% compared with that attained by the enzyme alone.

stromelysin (MMP-3) = target: T2, stromelysin (MMP-3) (Homo sapiens, UniProt P08254); assay: Assay for Stromelysin Inhibitory Activity (MMP-3); format: biochemical; conditions: fluorescein-labeled casein substrate, 37° C., 2 hours, pH 7.8; read-out: Inhibitory activities for matrix metalloproeinases (MMPs), MMP-3, IC50 value
T2 construct: endogenous in cells; host or cells: human fibroblast
T2 sequence (P08254 100-477): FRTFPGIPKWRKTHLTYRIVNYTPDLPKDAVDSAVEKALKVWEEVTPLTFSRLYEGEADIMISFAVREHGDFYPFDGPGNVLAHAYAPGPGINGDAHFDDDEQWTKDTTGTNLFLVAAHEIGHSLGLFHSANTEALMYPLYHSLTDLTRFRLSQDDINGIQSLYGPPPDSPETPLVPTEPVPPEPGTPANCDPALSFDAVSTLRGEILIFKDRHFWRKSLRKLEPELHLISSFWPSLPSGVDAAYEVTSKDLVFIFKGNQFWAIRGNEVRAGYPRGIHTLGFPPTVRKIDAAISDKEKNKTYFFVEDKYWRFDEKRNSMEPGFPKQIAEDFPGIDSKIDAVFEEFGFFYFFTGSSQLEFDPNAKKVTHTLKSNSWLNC
Experimental: as §1
Inhibitory activities for stromelysin (MMP-3) of the compounds of Examples and comparative compounds were measured by the method of S. S. Twining et al., [Anal. Biochem., 143, p. 30 (1984)]. The latent prostromelysin was incubated with human plasmin (20 μg/ml) for the activation at 37° C. for 2 hours, and then the incubate was added with diisopropyl fluorophosphate solution (2.8 mg/ml) to stop the reaction. The assay was done by using casein labeled with fluorescein as the substrate. The activated stromelysin was added to a substrate solution (1 mg/ml) in Tris HCl buffer (50 mM, pH 7.8) containing calcium chloride (10 mM). The obtained solution was incubated at37° C. for 2 hours. The enzyme digestion forthesubstrate was stopped by adding 5% trichloroacetic acid. The indigested substrate was sedimented by centrifuging at 3000 g for 20 min. The supernatant was taken and added with Tris HCl buffer (0.5 M, pH 8.5), whereby its intensity of fluorescence was determined by the excitation wavelength (495 nm) and the measured wavelength (520 nm), and the inhibitory activity was obtained. IC50 is a concentration of a compound assayed in the digesting enzyme, whereby the splitting of the substrate was decreased to 50% compared with that attained by the enzyme alone.

[1] = Measurement of Solubility in Water; format: physicochemical; conditions: distilled water, 20±5° C., 30 min., checked by eye
Experimental: A compound of Examples or a comparative compound was added to distilled water and shaken vigorously at 20±5° C. for 30 seconds at 5 min. interval. After 30 min., it was checked by watching with eye whether the compound was dissolved or not.

[2] = fluorescein-labeled bovine type I collagen substrate, 35° C., 2 hours, pH 7.5, read-out: Inhibitory activities for matrix metalloproeinases (MMPs), MMP-1, IC50 value

| Compound | IC50 (collagenase (MMP-1); [2]) [nM] | IC50 (stromelysin (MMP-3)) [nM] | further results |
| --- | --- | --- | --- |
| CCCOC[C@H](C(=O)N[C@@H](Cc1ccc(S(=O)(=O)[O-])cc1)C(=O)NC)C(CSC(C)C)C(=O)NO.[Na+] (mixture of isomers) [Example 6, N-[4-(N-Hydroxyamino)-2(R)-n-propyloxymethylene-3(RS)-isopropylthiomethylenesuccinyl]-L-4'-sulfophenylalanine-N-methylamide, Monosodium Salt] | 20 | 280 | Solubility in water [1]: > 120 mg/mL |
| CNC(=O)[C@H](Cc1ccc(OS(=O)(=O)O)cc1)NC(=O)C(CC(=O)NO)CC(C)C (single isomer, unassigned) [Example 1 (Isomer A), N-[4-(N-Hydroxyamino)-2(R or S)-isobutylsuccinyl]-O-sulfo-L-tyrosine-N-methylamide, Monosodium Salt] | – | – | solubility at 0.5 h ([1]; water): > 240 mg/mL |
| CNC(=O)[C@H](Cc1ccc(OS(=O)(=O)O)cc1)NC(=O)C(CC(=O)NO)CC(C)C (single isomer, unassigned) [Example 1 (Isomer B), N-[4-(N-Hydroxyamino)-2(R or S)-isobutylsuccinyl]-O-sulfo-L-tyrosine-N-methylamide, Monosodium Salt] | 5.1 | 500 | – |
| CNC(=O)[C@H](Cc1ccc(OS(=O)(=O)O)cc1)NC(=O)[C@H](CC(C)C)C(CCCc1ccccc1)C(=O)NO (single isomer, unassigned) [Example 3 (Isomer A), N-[4-(N-Hydroxyamino)-2(R)-isobutyl-3(R or S)-(3-phenyltrimethylene)succinyl]-O-sulfo-L-tyrosine-N-methylamide, Monosodium Salt] | – | – | solubility at 0.5 h ([1]; water): > 100 mg/mL |
| CNC(=O)[C@H](Cc1ccc(OS(=O)(=O)O)cc1)NC(=O)[C@H](CC(C)C)C(CCCc1ccccc1)C(=O)NO (single isomer, unassigned) [Example 3 (Isomer B), N-[4-(N-Hydroxyamino)-2(R)-isobutyl-3(R or S)-(3-phenyltrimethylene)succinyl]-O-sulfo-L-tyrosine-N-methylamide, Monosodium Salt] | 0.4 | 5.4 | Solubility in water ([1]; Monosodium Salt): 150 mg/mL |
| CNC(=O)[C@H](Cc1ccc(S(=O)(=O)O)cc1)NC(=O)[C@H](CC(C)C)C(CSc1cccs1)C(=O)NO (single isomer, unassigned) [Example 5 (Isomer A), N-[4-(N-Hydroxyamino)-2(R)-isobutyl-3(R or S)-(thienylthiomethylene)succinyl]-L-4'-sulfophenylalanine-N-methylamide, Monosodium Salt] | 8 | 8 | solubility at 0.5 h ([1]; water): > 320 mg/mL |
| CNC(=O)[C@H](Cc1ccc(S(=O)(=O)O)cc1)NC(=O)[C@H](CC(C)C)C(CSc1cccs1)C(=O)NO (single isomer, unassigned) [Example 5 (Isomer B), N-[4-(N-Hydroxyamino)-2(R)-isobutyl-3(R or S)-(thienylthiomethylene)succinyl]-L-4'-sulfophenylalanine-N-methylamide, Monosodium Salt] | – | – | Solubility in water ([1]; Monosodium Salt): > 300 mg/mL |
| CNC(=O)[C@H](Cc1ccc(OP(=O)(O)O)cc1)NC(=O)C(CC(=O)NO)CC(C)C (single isomer, unassigned) [Example 9, N-[4-(N-Hydroxyamino)-2(R or S)-isobutylsuccinyl]-O-phospho-L-tyrosine-N-methylamide, Disodium Salt] | – | 400 | IC50 (collagenase (MMP-1)): 17 nM; solubility at 0.5 h [1]: > 200 mg/mL |
| CNC(=O)[C@H](Cc1ccc(CNC(C)=N)cc1)NC(=O)[C@H](CC(C)C)C(CCCc1ccccc1)C(=O)NO (single isomer, unassigned) [Example 10, N-[4-(N-Hydroxyamino)-2(R)-isobutyl-3(R or S)-(3-phenyltrimethylene)succinyl]-L-4'-acetimidoyliminomethylenephenylalanine-N-methylamide Monoacetate] | 7 | 15 | – |
| CNC(=O)[C@H](Cc1ccc(C(=N)N)cc1)NC(=O)[C@H](CC(C)C)C(CCCc1ccccc1)C(=O)NO (single isomer, unassigned) [Example 17, N-[4-(N-Hydroxyamino)-2(R)-isobutyl-3(R or S)-(3-phenyltrimethylene)succinyl]-L-4'-amidinophenylalanine-N-methylamideMonoacetate] | 5 | 5 | – |
| CNC(=O)[C@H](Cc1ccc(OC)cc1)NC(=O)[C@@H](CC(=O)NO)CC(C)C [Comparative Compound 1, N-[4-(N-Hydroxyamino)-2(R)-isobutylsuccinyl]-O-methyl-L-tyrosine-N-methylamide, reference compound] | – | 110 | solubility at 0.5 h ([1]; water): < 1 mg/mL |
| CNC(=O)[C@H](Cc1ccccc1)NC(=O)[C@H](CC(C)C)[C@H](CSc1cccs1)C(=O)NO [Comparative Compound 3, N-[4-(N-Hydroxyamino)-2(R)-isobutyl-3(S)-thienyltiomethylenesuccinyl]-L-phenylalanine-N-methylamide, reference compound] | – | – | solubility at 0.5 h ([1]; water): < 1 mg/mL |
| CNC(=O)[C@H](Cc1ccc(CNC(=N)c2ccccc2)cc1)NC(=O)[C@H](CC(C)C)C(CCCc1ccccc1)C(=O)NO (stereo partly drawn) [Example 12, N-[4-(N-Hydroxyamino)-2(R)-isobutyl-3(RS)-(3-phenyltrimethylene)succinyl]-L-4'-benzimidoyliminomethylenephenylalanine-N-methylamide Monoacetate] | 10 | 10 | – |
| CNC(=O)[C@H](Cc1ccc(CNC(C)=O)cc1)NC(=O)[C@H](CC(C)C)C(CCCc1ccccc1)C(=O)NO (stereo partly drawn) [Example 13, N-[4-(N-Hydroxyamino)-2(R)-isobutyl-3(RS)-(3-phenyltrimethylene)succinyl]-L-4'-acetamidomethylenephenylalanine-N-methylamide] | 4 | 10 | – |
| CNC(=O)[C@H](Cc1ccc(CNC(=N)N)cc1)NC(=O)[C@H](CC(C)C)C(CCCc1ccccc1)C(=O)NO (stereo partly drawn) [Example 14, N-[4-(N-Hydroxyamino)-2(R)-isobutyl-3(RS)-(3-phenyltrimethylene)succinyl]-L-4'-guanidomethylenephenylalanine-N-methylamide Monoacetate] | 4 | 10 | – |
| CC(C)C[C@@H](C(=O)N[C@@H](Cc1ccc(OS(=O)(=O)O)cc1)C(=O)Nc1cccc2ccccc12)C(CCCc1ccccc1)C(=O)NO (stereo partly drawn) [Example 18, N-[4-(N-Hydroxyamino)-2(R)-isobutyl-3(RS)-(3-phenyltrimethylene)succinyl]-O-sulfo-L-tyrosine-N-1-naphthylamide, Monosodium Salt] | 500 | 6 | – |
| CC(C)C[C@@H](C(=O)N[C@@H](Cc1ccc(NC(=N)N)cc1)C(=O)Nc1ccccc1)C(CCCc1ccccc1)C(=O)NO (stereo partly drawn) [Example 19, N-[4-(N-Hydroxyamino)-2(R)-isobutyl-3(RS)-(3-phenyltrimethylene)succinyl]-L-4'-guanidophenylalanine-N-phenylamide Monoacetate] | 8 | 10 | – |
